Data on 68 compounds can be found in patent US20150246938A1, “NOVEL OLEFIN DERIVATIVE” (SHIONOGI & CO., LTD., priority 2011, published 2015).

SMILES strings stand for the structures.

The target of the first assay is T1, recombinant human ACC2 (Homo sapiens, UniProt O00763).
T1 construct: a cDNA encoding human ACC2 (27-2458) was cloned from human kidney cDNA library (Clontech); His-tag (N); made in house; host or cells: Sf-9 insect cells (Bac-to-Bac baculovirus)
T1 sequence (O00763 27-2458): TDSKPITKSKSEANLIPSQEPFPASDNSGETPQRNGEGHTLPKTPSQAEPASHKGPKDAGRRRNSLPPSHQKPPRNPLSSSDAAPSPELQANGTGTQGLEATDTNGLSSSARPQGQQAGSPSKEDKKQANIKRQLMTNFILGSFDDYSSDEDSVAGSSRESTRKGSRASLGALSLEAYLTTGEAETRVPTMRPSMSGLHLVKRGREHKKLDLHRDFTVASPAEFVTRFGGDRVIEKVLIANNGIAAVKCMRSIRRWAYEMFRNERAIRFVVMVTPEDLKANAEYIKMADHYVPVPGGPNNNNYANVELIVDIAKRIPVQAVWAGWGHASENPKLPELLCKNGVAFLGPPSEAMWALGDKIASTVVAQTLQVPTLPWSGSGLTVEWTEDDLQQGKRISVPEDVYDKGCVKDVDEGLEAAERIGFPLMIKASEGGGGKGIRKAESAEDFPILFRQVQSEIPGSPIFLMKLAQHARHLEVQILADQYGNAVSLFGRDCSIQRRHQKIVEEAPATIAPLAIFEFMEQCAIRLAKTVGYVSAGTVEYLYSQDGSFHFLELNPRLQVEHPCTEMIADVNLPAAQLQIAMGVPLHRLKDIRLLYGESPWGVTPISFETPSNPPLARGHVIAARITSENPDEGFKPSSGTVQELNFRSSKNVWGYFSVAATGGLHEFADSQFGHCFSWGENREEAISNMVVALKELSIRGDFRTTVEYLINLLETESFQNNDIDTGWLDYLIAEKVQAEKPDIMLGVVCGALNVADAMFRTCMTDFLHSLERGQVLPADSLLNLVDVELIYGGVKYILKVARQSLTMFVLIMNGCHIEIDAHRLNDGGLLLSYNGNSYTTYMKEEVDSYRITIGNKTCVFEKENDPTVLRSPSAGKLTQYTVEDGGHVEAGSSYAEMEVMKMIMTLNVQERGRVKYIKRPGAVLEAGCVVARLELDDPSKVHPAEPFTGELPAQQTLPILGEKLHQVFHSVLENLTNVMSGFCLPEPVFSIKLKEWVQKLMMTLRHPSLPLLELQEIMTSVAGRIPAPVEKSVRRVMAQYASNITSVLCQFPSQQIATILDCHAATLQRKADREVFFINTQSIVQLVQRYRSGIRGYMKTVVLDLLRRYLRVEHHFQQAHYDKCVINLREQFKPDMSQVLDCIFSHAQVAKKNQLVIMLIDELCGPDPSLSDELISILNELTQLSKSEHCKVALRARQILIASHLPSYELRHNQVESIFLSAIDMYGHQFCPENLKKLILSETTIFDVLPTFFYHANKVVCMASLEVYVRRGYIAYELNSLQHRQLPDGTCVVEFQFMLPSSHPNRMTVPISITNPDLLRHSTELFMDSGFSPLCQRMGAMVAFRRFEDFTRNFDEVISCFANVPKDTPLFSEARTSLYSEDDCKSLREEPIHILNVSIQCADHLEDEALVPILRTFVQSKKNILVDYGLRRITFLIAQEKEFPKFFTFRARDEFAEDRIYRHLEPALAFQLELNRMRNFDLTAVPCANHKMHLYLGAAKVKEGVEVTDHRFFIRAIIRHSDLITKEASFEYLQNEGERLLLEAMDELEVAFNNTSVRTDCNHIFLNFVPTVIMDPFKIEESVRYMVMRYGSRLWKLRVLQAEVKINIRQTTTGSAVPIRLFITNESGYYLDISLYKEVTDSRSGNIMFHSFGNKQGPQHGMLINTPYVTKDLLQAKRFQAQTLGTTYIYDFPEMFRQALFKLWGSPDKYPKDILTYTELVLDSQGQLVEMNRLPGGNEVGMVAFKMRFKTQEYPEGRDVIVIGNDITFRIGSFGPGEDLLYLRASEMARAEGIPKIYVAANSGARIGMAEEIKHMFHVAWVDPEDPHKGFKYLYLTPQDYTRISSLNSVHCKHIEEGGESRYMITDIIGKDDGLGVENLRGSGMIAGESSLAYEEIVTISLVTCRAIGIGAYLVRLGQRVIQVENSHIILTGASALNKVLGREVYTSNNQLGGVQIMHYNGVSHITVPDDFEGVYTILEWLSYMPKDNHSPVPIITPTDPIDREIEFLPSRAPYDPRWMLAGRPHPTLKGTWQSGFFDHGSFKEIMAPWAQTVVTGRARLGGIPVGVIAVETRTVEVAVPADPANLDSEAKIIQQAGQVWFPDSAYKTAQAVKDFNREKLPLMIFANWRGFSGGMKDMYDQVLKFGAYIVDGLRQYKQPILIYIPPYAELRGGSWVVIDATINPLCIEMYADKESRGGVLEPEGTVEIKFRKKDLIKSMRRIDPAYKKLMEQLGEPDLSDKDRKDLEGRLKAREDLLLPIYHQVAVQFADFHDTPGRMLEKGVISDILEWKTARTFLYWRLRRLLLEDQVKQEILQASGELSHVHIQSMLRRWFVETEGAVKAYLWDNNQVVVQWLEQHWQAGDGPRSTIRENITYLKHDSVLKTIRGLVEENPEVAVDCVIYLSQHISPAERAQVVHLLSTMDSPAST
Nature of the assay: Measurement of inhibitory activity on human ACC2 (MALDI-TOF MS, acetyl CoA to malonyl CoA conversion). The assay is classed as biochemical.
Details: not given
Regarding `CC(=O)N[C@@H](C)/C=C/c1ccc(Oc2ccc(-c3cnc(C(F)(F)F)cn3)cc2Cl)nc1` [Compound I-417], the IC50 stood at 57 nM.

For `CCCc1cc(Cl)c(Oc2ccc(/C=C/[C@H](C)NC(C)=O)cn2)c(Cl)c1` [Compound I-385], the concentration for half-maximal inhibition (IC50) was 160 nM.

As for `CC(=O)N[C@@H](C)/C=C/c1ccc(Oc2ccc(N3CCOCC3)cc2Cl)nc1` [Compound I-382], the IC50 was found to be 1300 nM.

`CCC(F)(F)c1ccc(Oc2ccc(/C=C/[C@H](C)NC(N)=O)cn2)c(Cl)c1` [Compound I-393]: the IC50 worked out at 48 nM.

Take `CC(=O)N[C@@H](C)/C=C/c1ccc(Oc2ccc(-c3nc4ccccc4s3)cc2Cl)nc1` [Compound I-415]: the IC50 worked out at 120 nM.

`CC(=O)N[C@@H](C)/C=C/c1ccc(Oc2ccc3c(c2)CCC3)nc1` [Compound I-397]: the IC50 amounted to 15 nM.

Staying with this assay, now noted: inhibition activity on human ACC2, Table 79; read-out: IC50.
For `CC(=O)N[C@@H](C)/C=C/c1cnc(Oc2ccc(OCC3CC3)cc2C#N)s1` [Compound I-6], the IC50 is 78 nM.

As for `C[C@@H](/C=C/c1cnc(Oc2ccc(OCC3CC3)cc2Cl)s1)NC(=O)CN1C(=O)CCC1=O` [Compound I-105], the IC50 was determined as 200 nM.

For the compound `CCCOc1ccc(Oc2ncc(/C=C/[C@H](C)NC(C)=O)s2)c(Cl)c1` [Compound I-2], the IC50 amounted to 16 nM.

For the compound `C[C@@H](/C=C/c1cnc(Oc2ccc(OCC3CC3)cc2Cl)s1)NC(=O)C1CC1` [Compound I-76], the IC50 is 30 nM.

Take `CC(=O)N[C@@H](C)/C=C/c1ccc(Oc2ccc(OC(C)C)cc2Cl)nc1` [Compound I-37]: the IC50 amounted to 37 nM.

`CC(=O)N[C@@H](C)/C=C/c1ccc(Oc2ccc(OCC3CC3)c(Cl)c2)nc1` [Compound I-23]: the IC50 worked out at 5.2 nM.

On to `CCOc1cc(Cl)cc(Oc2ccc(/C=C/[C@H](C)NC(C)=O)cn2)c1` [Compound I-45], for which the IC50 stood at 83 nM.

On to `C[C@@H](/C=C/c1cnc(Oc2ccc(OCC3CC3)cc2Cl)s1)NC(=O)CCCN1CCCC1=O` [Compound I-86], for which the IC50 worked out at 440 nM.

Turning to `C[C@@H](/C=C/c1cnc(Oc2ccc(OCC3CC3)cc2Cl)s1)NC(=O)CC(N)=O` [Compound I-116], the IC50 came to 150 nM.

Take `CC(=O)N[C@@H](C)/C=C/c1cnn(Cc2ccc(OCC3CC3)cc2)c1` [Compound I-64]: the IC50 is 5900 nM.

On to `CCOc1cccc(Oc2ccc(/C=C/[C@H](C)NC(C)=O)cn2)c1Cl` [Compound I-48], for which the IC50 was 37 nM.

On to `CC(=O)N[C@@H](C)/C=C/c1ccc(Oc2cc(Cl)cc(OCC3CC3)c2)nc1` [Compound I-43], for which the concentration for half-maximal inhibition (IC50) came to 80 nM.

`CCCOc1ccc(Oc2ccc(/C=C/[C@H](C)NC(C)=O)cn2)c(Cl)c1` [Compound I-38]: the IC50 was 9.1 nM.

As for `CC(=O)N[C@@H](C)/C=C/c1ccc(Oc2ccc(N3CCCC3)cc2Cl)nc1` [Compound I-32], the IC50 turned out to be 14 nM.

Regarding `CC(=O)N[C@@H](C)/C=C/c1ccc(Oc2ccc(OCC3CC3)cc2Cl)nc1` [Compound I-14], the IC50 amounted to 6.9 nM.

Turning to `CCOc1ccc(Oc2ccc(/C=C/[C@H](C)NC(C)=O)cn2)c(Cl)c1` [Compound I-13], the half-inhibitory concentration (IC50) came out at 52 nM.

Take `CC(=O)N[C@@H](C)/C=C/c1cnn(CCc2ccc(OCC3CC3)cc2)c1` [Compound I-66]: the IC50 came out at 5700 nM.

Turning to `COC(=O)c1ccn(CC(=O)N[C@@H](C)/C=C/c2cnc(Oc3ccc(OCC4CC4)cc3Cl)s2)n1` [Compound I-113], the IC50 turned out to be 480 nM.

Still in this assay, the particulars now being: inhibition activity on human ACC2, Table 80; read-out: IC50.
Regarding `CC(=O)Nc1ncc(C(=O)N[C@@H](C)/C=C/c2cnc(Oc3ccc(OCC4CC4)cc3Cl)s2)s1` [Compound I-159], the IC50 was 220 nM.

Consider `CCCOc1ccc(Oc2ncc(/C=C/[C@H](C)NC(=O)c3ccncc3)s2)c(Cl)c1` [Compound I-169], for which the half-maximal inhibitory concentration (IC50) stood at 370 nM.

For the compound `C[C@@H](/C=C/c1cnc(Oc2ccc(OCC3CC3)cc2Cl)s1)NC(=O)Cn1ccnc1` [Compound I-123], the IC50 is 180 nM.

As to `CCNC(=O)N[C@@H](C)/C=C/c1cnn(Cc2ccc(OCC3CC3)cc2Cl)c1` [Compound I-196], the half-inhibitory concentration (IC50) was 1100 nM.

`C[C@@H](/C=C/c1cnc(Oc2ccc(OCC3CC3)cc2Cl)s1)NC(=O)c1ccnc(-c2ncco2)c1` [Compound I-139]: the IC50 is 66 nM.

Turning to `CCN1CCN(CCC(=O)N[C@@H](C)/C=C/c2cnc(Oc3ccc(OCC4CC4)cc3Cl)s2)CC1` [Compound I-124], the IC50 was found to be 1400 nM.

Turning to `C[C@@H](/C=C/c1cnc(Oc2ccc(OCC3CC3)cc2Cl)s1)NC(=O)Cc1ccncc1` [Compound I-122], the half-inhibitory concentration (IC50) is 150 nM.

Regarding `COCCNC(=O)N[C@@H](C)/C=C/c1cnc(Oc2ccc(OCC3CC3)cc2Cl)s1` [Compound I-189], the IC50 came out at 240 nM.

Regarding `CCNC(=O)c1cc(C(=O)N[C@@H](C)/C=C/c2cnn(Cc3ccc(OCC4CC4)cc3Cl)c2)ccn1` [Compound I-233], the IC50 turned out to be 44 nM.

Take `CC(=O)Nc1cc(C(=O)N[C@@H](C)/C=C/c2cnc(Oc3ccc(OCC4CC4)cc3Cl)s2)ccn1` [Compound I-135]: the 50% inhibitory concentration (IC50) came to 42 nM.

Take `C[C@@H](/C=C/c1cnc(Oc2ccc(OCC3CC3)cc2Cl)s1)NC(=O)c1ccnc(NCCN2CCCC2)c1` [Compound I-244]: the IC50 was found to be 36 nM.

The assay is the same for the next values; noted with them: inhibition activity on human ACC2, Table 82; read-out: IC50.
Take `CCCc1ccc(Oc2ccc(/C=C/[C@H](C)NC(=O)C(=O)OCC)cn2)c(Cl)c1` [Compound I-374]: the IC50 stood at 780 nM.

Consider `CC(=O)N[C@@H](C)/C=C/c1ccc(Oc2ccc(-c3ccc(C#N)cc3)c(Cl)c2)nc1` [Compound I-377], for which the IC50 was found to be 39 nM.

For `CCCc1ccc(Oc2ccc(/C=C/[C@H](C)NC(C)=O)cn2)nc1` [Compound I-336], the IC50 is 2000 nM.

Take `CCCc1ccc(Oc2ncc(/C=C/[C@H](C)NC(C)=O)cn2)cc1Cl` [Compound I-324]: the IC50 was determined as 170 nM.

As to `CCS(=O)(=O)c1ccc(Oc2ccc(/C=C/[C@H](C)NC(C)=O)cn2)c(Cl)c1` [Compound I-362], the IC50 came out at 350 nM.

`CCNC(=O)c1cc(C(=O)N[C@@H](C)/C=C/c2cnn(Cc3ccc(OCC4CC4)cc3F)c2)ccn1` [Compound I-318]: the IC50 worked out at 67 nM.

Regarding `CC(=O)N[C@@H](C)/C=C/c1ccc(Oc2ccc(Cl)c(Cl)c2)nc1` [Compound I-338], the IC50 turned out to be 33 nM.

Take `CCc1ccc(Oc2ccc(/C=C/[C@H](C)NC(C)=O)cn2)c(Cl)c1` [Compound I-339]: the half-maximal inhibitory concentration (IC50) was determined as 91 nM.

For `CCOc1ccc(Oc2ccc(/C=C(\F)C(C)NC(C)=O)cn2)c(Cl)c1` (centres unmarked) [Compound I-365], the IC50 amounted to 10 nM.

Regarding `CCC(O)c1ccc(Oc2ccc(/C=C/[C@H](C)NC(C)=O)cn2)c(Cl)c1` (some centres unmarked) [Compound I-359], the IC50 came out at 230 nM.

On to `CCCCc1ccc(Oc2ccc(/C=C/[C@H](C)NC(C)=O)cn2)c(Cl)c1` [Compound I-337], for which the IC50 was determined as 23 nM.

Take `CC(=O)N[C@@H](C)/C=C/c1ccc(Oc2ccc(-c3ccc(C#N)nc3)cc2Cl)nc1` [Compound I-376]: the IC50 worked out at 1100 nM.

As to `CC(=O)N[C@@H](C)/C=C/c1ccc(Oc2ccc(SCC(C)C)cc2Cl)nc1` [Compound I-364], the IC50 amounted to 13 nM.

The assay is the same for the next values; noted with them: inhibition activity on human ACC2, Table 84; read-out: IC50.
With `CCC(CC)c1ccc(Oc2ccc(/C=C/[C@H](C)NC(C)=O)cn2)c(Cl)c1` [Compound I-436], the IC50 was 58 nM.

Turning to `CCCc1ccc(Oc2ccc(/C=C(\F)[C@H](C)NC(C)=O)cn2)c(Cl)c1` [Compound I-459], the half-maximal inhibitory concentration (IC50) was found to be 12 nM.

On to `CCc1nc2ccc(Oc3ccc(/C=C/[C@H](C)NC(C)=O)cn3)c(Cl)c2s1` [Compound I-474], for which the 50% inhibitory concentration (IC50) was 9.7 nM.

On to `CC(=O)N[C@@H](C)/C=C/c1ccc(Oc2ccc(C3CC3C)cc2Cl)nc1` (some centres unmarked) [Compound I-494], for which the IC50 stood at 14 nM.

`CC(=O)N[C@@H](C)/C=C/c1ccc(Oc2ccc3c(c2Cl)CCN(CC2CC2)C3=O)nc1` [Compound I-511]: the IC50 worked out at 88 nM.

With `CC(=O)N[C@@H](C)/C=C/c1ccc(Oc2ccc3nc(C(C)C)sc3c2Cl)nc1` [Compound I-477], the half-inhibitory concentration (IC50) turned out to be 6.9 nM.

`CCOc1ccc(OCc2cccc(/C=C/[C@H](C)NC(C)=O)c2)c(Cl)c1` [Compound I-506]: the IC50 stood at 8.2 nM.

As to `CCCc1ccc(Oc2ccc(/C=C/[C@H](C)NC(C)=O)nc2)c(Cl)c1` [Compound I-496], the IC50 was determined as 210 nM.

For the compound `CC(=O)N[C@@H](C)/C=C/c1ccc(Oc2cc3sc(C)nc3cc2Cl)nc1` [Compound I-478], the half-inhibitory concentration (IC50) stood at 550 nM.

On to `CC(=O)N[C@@H](C)/C=C/c1ccc(Oc2ccc3nc(C(F)(F)F)sc3c2)nc1` [Compound I-481], for which the IC50 was 13 nM.

For `CC(=O)N[C@@H](C)/C=C/c1ccc(Oc2ccc(-c3ccc(F)cc3)cc2)nc1` [Compound I-514], the IC50 was 96 nM.

`CC(=O)N[C@@H](C)/C=C/c1ccc(Oc2ccc3c(c2)OC(F)(F)O3)nc1` [Compound I-483]: the IC50 was 52 nM.

`CCCc1ccc(Oc2cnc(/C=C/[C@H](C)NC(C)=O)cn2)c(Cl)c1` [Compound I-433]: the IC50 worked out at 49 nM.

For `CC(=O)N[C@@H](C)/C=C/c1cnc(Oc2ccc(OCC3CC3)cc2Cl)c(C#N)c1` [Compound I-445], the IC50 stood at 260 nM.

Regarding `CC(=O)N[C@@H](C)/C=C/c1ccc(Oc2ccc(Oc3cccnc3)cc2Cl)nc1` [Compound I-464], the IC50 came out at 120 nM.

As to `C/C=C/c1ccc(Oc2ccc(/C=C/[C@H](C)NC(C)=O)cn2)c(Cl)c1` [Compound I-460], the IC50 came out at 130 nM.

In the case of `CCCC(F)(CC)c1ccc(Oc2ccc(/C=C/[C@H](C)NC(C)=O)cn2)c(Cl)c1` (some centres unmarked) [Compound I-467], the half-inhibitory concentration (IC50) worked out at 43 nM.

The same assay, now with this note: inhibition activity on human ACC2, untitled table (Table 81); read-out: IC50.
In the case of `CC(=O)N[C@@H](C)/C=C/c1ccc(Oc2ccc(NC(=O)CC3CC3)cc2Cl)nc1` [Compound I-251], the IC50 was 96 nM.

`CC(=O)N[C@@H](C)/C=C/c1ccc(Oc2ccc(OCCO)cc2Cl)nc1` [Compound I-304]: the half-maximal inhibitory concentration (IC50) is 1400 nM.

For `CCNC(=O)c1cc(C(=O)N[C@@H](C)/C=C/c2cnn(Cc3ccc(OC(F)(F)F)cc3)c2)ccn1` [Compound I-308], the IC50 worked out at 480 nM.

As usually defined, the IC50 is the midpoint of a concentration-inhibition curve.
